≈ marks a conversion by molar mass, not a printed value. Where a SMILES comes first, the peptide text is derived from it. Bridges are numbered along the chain shown (N, C = ends). [ ]: non-standard residue; d: D form. The star is where a group is joined. Octanoyl = CCCCCCCC(=O)*; Dab = NCC[C@H](N)C(=O)O; Abu = CC[C@H](N)C(=O)O A value given as a limit tells only on which side of the number the result lay.

Test [1] relates to Escherichia coli. The experiment in a line: Antimicrobial activity against Escherichia coli at 10 ug/mL. The test is classed as functional.
For test [2], the system named is Pseudomonas aeruginosa. The experiment in a line: Antimicrobial activity against Pseudomonas aeruginosa. The test is classed as functional, organism-based.
In test [3] the test system is Klebsiella pneumoniae. The experiment in a line: Antimicrobial activity against Klebsiella pneumoniae. The test is classed as functional.
In test [4] the test system is Escherichia coli. The experiment in a line: Antimicrobial activity against Escherichia coli. In kind it is functional.

Turning to `CCCCCCCCCC(=O)N[C@H](C(=O)N[C@H](CO)C(=O)N[C@H]1CCNC(=O)[C@H]([C@@H](C)O)NC(=O)[C@H](CCN)NC(=O)[C@H](CCN)NC(=O)[C@H](CC(C)C)NC(=O)[C@@H](Cc2ccccc2)NC(=O)[C@H](CCN)NC1=O)[C@@H](C)O`, the GI in test [1] was determined as 130 square millimeter.
As a reminder, the MIC is the lowest concentration found to suppress growth. A higher MIC goes with weaker potency. Consider `CCCCCCCC(=O)N[C@@H](CCN)C(=O)N[C@@H](C(=O)N[C@@H](CCN)C(=O)N[C@H]1CCNC(=O)[C@H]([C@@H](C)O)NC(=O)[C@H](CCNCCCCCC(C)CC)NC(=O)[C@H](CCN)NC(=O)[C@H](CC(C)C)NC(=O)[C@@H](Cc2ccccc2)NC(=O)[C@H](CCN)NC1=O)[C@@H](C)O` (stereo partly specified), for which the MIC in test [2] is 2.18 µg/mL (≈ 1.66 µM); in test [3], 0.7 µg/mL (≈ 0.532 µM); in test [4] it was 3.1 µg/mL (≈ 2.36 µM).
As to `CCCCCCCC(=O)N[C@H](C(=O)N[C@@H](CCC(N)=O)C(=O)N[C@H]1CCNC(=O)[C@H]([C@@H](C)O)NC(=O)[C@H](CCN)NC(=O)[C@H](CCN)NC(=O)[C@H](CC(C)C)NC(=O)[C@@H](Cc2ccccc2)NC(=O)[C@H](CCN)NC1=O)[C@@H](C)O`, the GI in test [1] was found to be 10 square millimeter.
Still for that read-out and setting: the same measure for `CCCCCCCC(=O)N[C@H](C(=O)N[C@@H](CC)C(=O)N[C@H]1CCNC(=O)[C@H]([C@@H](C)O)NC(=O)[C@H](CCN)NC(=O)[C@H](CCN)NC(=O)[C@H](CC(C)C)NC(=O)[C@@H](Cc2ccccc2)NC(=O)[C@H](CCN)NC1=O)[C@@H](C)O`: 32 square millimeter.
For `CCCCCCCC(=O)N[C@@H](CCN)C(=O)N[C@H](C(=O)N[C@@H](CCN)C(=O)N[C@H]1CCNC(=O)[C@H]([C@@H](C)O)NC(=O)[C@H](CCNC(=O)[C@@H](N)CS)NC(=O)[C@H](CCN)NC(=O)[C@H](CC(C)C)NC(=O)[C@@H](Cc2ccccc2)NC(=O)[C@H](CCN)NC1=O)[C@@H](C)O`, the MIC in test [2] was found to be 2.82 µg/mL (≈ 2.18 µM); in test [3], 11.3 µg/mL (≈ 8.75 µM); in test [4], 1.68 µg/mL (≈ 1.3 µM).
For `CC(C)C[C@@H]1NC(=O)[C@@H](Cc2ccccc2)NC(=O)[C@H](CCN)NC(=O)[C@@H](NC(=O)[C@H](CCN)NC(=O)[C@H](NC(=O)OCC2c3ccccc3-c3ccccc32)[C@@H](C)O)CCNC(=O)[C@@H]([C@@H](C)O)NC(=O)[C@H](CCN)NC(=O)[C@H](CCN)NC1=O`, the results for the MIC in test [2], in test [3] and in test [4] were 8 µg/mL (≈ 6.75 µM), 62 µg/mL (≈ 52.3 µM) and 0.8 µg/mL (≈ 0.675 µM), respectively.
In the case of `CCCCCCC(=O)N[C@H](C(=O)N[C@H](CO)C(=O)N[C@H]1CCNC(=O)[C@H]([C@@H](C)O)NC(=O)[C@H](CCN)NC(=O)[C@H](CCN)NC(=O)[C@H]([C@H](C)O)NC(=O)[C@@H](Cc2ccccc2)NC(=O)[C@H](CCN)NC1=O)[C@@H](C)O`, the GI in test [1] stood at 200 square millimeter.
As for `CC(C)C[C@@H]1NC(=O)[C@@H](Cc2ccccc2)NC(=O)[C@H](CCN)NC(=O)[C@@H](NC(=O)[C@H](CCN)NC(=O)[C@H](NC(=O)[C@H](C)NC(=O)[C@@H](C)NC(=O)[C@H](C)NC(=O)[C@H](C)NC(=O)[C@@H](C)NC(=O)[C@H](C)N)[C@@H](C)O)CCNC(=O)[C@@H]([C@@H](C)O)NC(=O)[C@H](CCN)NC(=O)[C@H](CCN)NC1=O`, the MIC in test [2], in test [3] and in test [4] was no less than 500 µg/mL throughout.
On to `CCCCCCCC(=O)N[C@@H](CCN)C(=O)N[C@H](C(=O)N[C@@H](CCN)C(=O)N[C@H]1CCNC(=O)[C@H]([C@@H](C)O)NC(=O)[C@H](CCNC(=O)CCl)NC(=O)[C@H](CCN)NC(=O)[C@H](CC(C)C)NC(=O)[C@@H](Cc2ccccc2)NC(=O)[C@H](CCN)NC1=O)[C@@H](C)O` [CHLOROACETYL DAB9 POLYMYXIN B], for which the values for the MIC in test [2], in test [3] and in test [4] were 0.085 µg/mL (≈ 0.0671 µM), 9.5 µg/mL (≈ 7.5 µM) and 0.454 µg/mL (≈ 0.359 µM), respectively.
`CCCCCCCC(=O)N[C@H](C(=O)N[C@H](C)C(=O)N[C@H]1CCNC(=O)[C@H]([C@@H](C)O)NC(=O)[C@H](CCN)NC(=O)[C@H](CCN)NC(=O)[C@H]([C@H](C)O)NC(=O)[C@@H](Cc2ccccc2)NC(=O)[C@H](CCN)NC1=O)[C@@H](C)O` returned a GI in test [1] of 60 square millimeter.
As for `CCCCCCCC(=O)N[C@@H](CCN)C(=O)N[C@H](C(=O)N[C@@H](CCN)C(=O)N[C@H]1CCNC(=O)[C@H]([C@@H](C)O)NC(=O)[C@H](CCNC(=O)C(N)CCCN)NC(=O)[C@H](CCN)NC(=O)[C@H](CC(C)C)NC(=O)[C@@H](Cc2ccccc2)NC(=O)[C@H](CCN)NC1=O)[C@@H](C)O` (stereo partly drawn) [L-LYSYL DAB9 POLYMYXIN B], the MIC in test [2] stood at 0.032 µg/mL (≈ 0.0245 µM); in test [3], 2.8 µg/mL (≈ 2.15 µM); in test [4], 0.173 µg/mL (≈ 0.133 µM).
In the case of `CCCCCCCC(=O)N[C@@H](CCN)C(=O)N[C@H](C(=O)N[C@@H](CCN)C(=O)N[C@H]1CCNC(=O)[C@H]([C@@H](C)O)NC(=O)[C@H](CCNC(=O)C(Cl)Cl)NC(=O)[C@H](CCN)NC(=O)[C@H](CC(C)C)NC(=O)[C@@H](Cc2ccccc2)NC(=O)[C@H](CCN)NC1=O)[C@@H](C)O` [DICHLOROACETYL DAB9 POLYMYXIN B], the MIC in test [2] is 0.995 µg/mL (≈ 0.765 µM); in test [3], 0.82 µg/mL (≈ 0.631 µM); in test [4], 1.54 µg/mL (≈ 1.18 µM).
As to `CCCCCCCC(=O)N[C@@H](CCN)C(=O)N[C@H](C(=O)N[C@@H](CCN)C(=O)N[C@H]1CCNC(=O)[C@H]([C@@H](C)O)NC(=O)[C@H](CCNC(=O)[C@H](N)CCSC)NC(=O)[C@H](CCN)NC(=O)[C@H](CC(C)C)NC(=O)[C@@H](Cc2ccccc2)NC(=O)[C@H](CCN)NC1=O)[C@@H](C)O`, the MIC is 0.416 µg/mL (≈ 0.315 µM) in test [2], 5.65 µg/mL (≈ 4.28 µM) in test [3] and 0.77 µg/mL (≈ 0.583 µM) in test [4].
On the same counts, the results for `CCCCCCCC(=O)N[C@@H](CCN)C(=O)N[C@H](C(=O)N[C@@H](CCN)C(=O)N[C@H]1CCNC(=O)[C@H]([C@@H](C)O)NC(=O)[C@H](CCNC(=O)CO)NC(=O)[C@H](CCN)NC(=O)[C@H](CC(C)C)NC(=O)[C@@H](Cc2ccccc2)NC(=O)[C@H](CCN)NC1=O)[C@@H](C)O` [HYDROXYACETYL DAB9 POLYMYXIN B] are 1.53 µg/mL (≈ 1.23 µM), 22.6 µg/mL (≈ 18.1 µM) and 1.54 µg/mL (≈ 1.23 µM).
Compound `CCCCCCCC(=O)N[C@H](C(=O)N[C@@H](CC)C(=O)N[C@H]1CCNC(=O)[C@H]([C@@H](C)O)NC(=O)[C@H](CCN)NC(=O)[C@H](CCN)NC(=O)[C@H](CC(C)C)NC(=O)[C@H](CC(C)C)NC(=O)[C@H](CCN)NC1=O)[C@@H](C)O` (Octanoyl-T[Abu][Dab][Dab]LL[Dab][Dab]T; lactam 3-C) showed a GI in test [1] of 0 square millimeter.
On to `CCCCCCCC(=O)N[C@@H](CCN)C(=O)N[C@H](C(=O)N[C@@H](CCN)C(=O)N[C@H]1CCNC(=O)[C@H]([C@@H](C)O)NC(=O)[C@H](CCNC(=O)[C@@H](N)Cc2ccc(O)cc2)NC(=O)[C@H](CCN)NC(=O)[C@H](CC(C)C)NC(=O)[C@@H](Cc2ccccc2)NC(=O)[C@H](CCN)NC1=O)[C@@H](C)O`, for which the figures for the MIC in test [2], in test [3] and in test [4] were 0.073 µg/mL (≈ 0.054 µM), 2.2 µg/mL (≈ 1.63 µM) and 0.175 µg/mL (≈ 0.129 µM), respectively.
The compound `CCCCCCC(=O)N[C@H](C(=O)N[C@H](CO)C(=O)N[C@H]1CCNC(=O)[C@H]([C@@H](C)O)NC(=O)[C@H](CCN)NC(=O)[C@H](CCN)NC(=O)[C@H](CC(C)C)NC(=O)[C@@H](Cc2ccccc2)NC(=O)[C@H](CCN)NC1=O)[C@@H](C)O` came in with a GI in test [1] of 80 square millimeter.
Still for that read-out and setting: next, `CCCCCCCC(=O)N[C@H](C(=O)N[C@@H](CCN)C(=O)N[C@H]1CCNC(=O)[C@H]([C@@H](C)O)NC(=O)[C@H](CCN)NC(=O)[C@H](CC)NC(=O)[C@H](CC(C)C)NC(=O)[C@@H](Cc2ccccc2)NC(=O)[C@H](CCN)NC1=O)[C@@H](C)O`: 60 square millimeter; `CCCCCCCC(=O)N[C@H](C(=O)N[C@@H](CO)C(=O)N[C@H]1CCNC(=O)[C@H]([C@@H](C)O)NC(=O)[C@H](CCN)NC(=O)[C@H](CCN)NC(=O)[C@H](CC(C)C)NC(=O)[C@@H](Cc2ccccc2)NC(=O)[C@H](CCN)NC1=O)[C@@H](C)O` (Octanoyl-TS[Dab][Dab][dF]L[Dab][Dab]T; lactam 3-C): 171 square millimeter; `CCCCCCCC(=O)N[C@H](C(=O)N[C@@H](CCN)C(=O)N[C@H]1CCNC(=O)[C@H]([C@@H](C)O)NC(=O)[C@H](CCN)NC(=O)[C@H](CCN)NC(=O)[C@H](CC(C)C)NC(=O)[C@H](Cc2ccccc2)NC(=O)[C@H](CCN)NC1=O)[C@@H](C)O`: 0 square millimeter.
Regarding `CC(C)C[C@@H]1NC(=O)[C@@H](Cc2ccccc2)NC(=O)[C@H](CCN)NC(=O)[C@@H](NC(=O)[C@H](CCN)NC(=O)[C@H](NC(=O)[C@H](CCN)NC(=O)OCC2c3ccccc3-c3ccccc32)[C@@H](C)O)CCNC(=O)[C@@H]([C@@H](C)O)NC(=O)[C@H](CCN)NC(=O)[C@H](CCN)NC1=O`, the MIC in test [2] amounted to 4 µg/mL (≈ 3.11 µM); in test [3] it was 16 µg/mL (≈ 12.4 µM); in test [4], 8 µg/mL (≈ 6.22 µM).
On to `CC(C)C[C@@H]1NC(=O)[C@@H](Cc2ccccc2)NC(=O)[C@H](CCN)NC(=O)[C@@H](NC(=O)[C@H](CCN)NC(=O)[C@H](NC(=O)[C@H](C)NC(=O)[C@@H](C)NC(=O)[C@H](C)N)[C@@H](C)O)CCNC(=O)[C@@H]([C@@H](C)O)NC(=O)[C@H](CCN)NC(=O)[C@H](CCN)NC1=O`, for which the MIC in test [2], in test [3] and in test [4] was no less than 500 µg/mL throughout.
`CCCCCCCC(=O)N[C@@H](CCN)C(=O)N[C@H](C(=O)N[C@@H](CCN)C(=O)N[C@H]1CCNC(=O)[C@H]([C@@H](C)O)NC(=O)[C@H](CCNC(C)C)NC(=O)[C@H](CCN)NC(=O)[C@H](CC(C)C)NC(=O)[C@@H](Cc2ccccc2)NC(=O)[C@H](CCN)NC1=O)[C@@H](C)O` [DIMETHYL DAB9 POLYMYXIN B]: the MIC in test [2] stood at 0.456 µg/mL (≈ 0.37 µM); in test [3], 16 µg/mL (≈ 13 µM); in test [4], 0.537 µg/mL (≈ 0.436 µM).
As for `CCCCCCCC(=O)N[C@H](C(=O)N[C@H](CO)C(=O)N[C@H]1CCNC(=O)[C@H]([C@@H](C)O)NC(=O)[C@H](CCN)NC(=O)[C@H](CCN)NC(=O)[C@H]([C@H](C)O)NC(=O)[C@@H](Cc2ccccc2)NC(=O)[C@H](CCN)NC1=O)[C@@H](C)O`, the GI in test [1] is 172 square millimeter.
As for `CCCCCCCC(=O)N[C@H](C(=O)N[C@@H](CC)C(=O)N[C@H]1CCNC(=O)[C@H](CC(C)C)NC(=O)[C@H](CCN)NC(=O)[C@H](CCN)NC(=O)[C@H](CC(C)C)NC(=O)[C@@H](Cc2ccccc2)NC(=O)[C@H](CCN)NC1=O)[C@@H](C)O` (Octanoyl-T[Abu][Dab][Dab][dF]L[Dab][Dab]L; lactam 3-C), the GI in test [1] worked out at 50 square millimeter.

These data come from ChEMBL document CHEMBL1156251, “Structure--activity relationships of polymyxin antibiotics” (J Med Chem, 2010).
